System: LLC1 lung carcinoma
Assay: LLC1 tumor model in WT mice
Assay type: in vivo
Method: FIG. 6: Usp22 inhibitor administration enhances antitumor immunity. A, Structure of compound CS30 (Usp22i-S02). B, FOXP3 MFI in WT and 22KO of Treg cells after treatment with 20 mg/kg of Usp22i-S02 in vivo (n=3). C, Representative flow cytometry plot of FOXP3+CD25+ MFI of CD4+ peripheral cells of mice treated with 20 mg/kg of Usp22i-S02 relative to control (n=5). D, Graphical representation of Foxp3 MFI upon Usp22i-S02 administration (n=5). E, Tumor growth curve of LLC1 cells subcutaneously injected in the flank of WT mice with or without the addition of 20 mg/kg/time of the Usp22 inhibitor starting at day 15, in 100 μL of oil (n=4). F-G, Representative flow cytometry plot and graphical representation of % infiltration of CD4+ and CD8+ T cells within the tumor (n=4). H, Representative histogram plot and graphical representation of itTreg Foxp3 MFI (n=4). I, MFI of itTreg suppressive markers (n=3-4). J, Percent Foxp3+IFNg+ itTreg cells in control and Usp22-S02 treated mice (n=3-4). B, D-E, G, H-I Two-way ANOVA with multiple comparisons between rows was performed to determine statistical significance. J, Unpaired two tailed T test was performed to determine significance. All data are presented as mean±stdev. NS, not significant. *P<0.05, **P<0.01, ***P<0.001, ****P<0.0001.
FIG. 16: Usp22i-S02 has little effect on naïve mice, yet enhances anti-tumor immunity in LLC1-challenged mice. A, Body weight of Usp22i-S02 treated mice verses DMSO treated controls over the course of treatment (n=4). A-F. Injections were twice a day for 3 consecutive days at 10 mg/kg (n=4). B, Percent of cell populations in naïve mice treated with Usp22i-S02 relative to DMSO control (n=3-4). C, Percent of KI-67+ cells in various compartments in naïve mice treated with Usp22i-S02 relative to DMSO control (n=3-4). D, Percent CD44^hiCD62L^10 in T cell populations gated on CD45+ cells in naïve mice treated with Usp22i-S02 relative to DMSO control (n=3). E, Percent Annexin+PI+ T cells gates on CD45+ cells in naïve mice treated with Usp22i-S02 relative to DMSO control (n=4). […]

For N#Cc1c2c(c(Nc3ccccc3)n3c1nc1ccccc13)CCCC2 [Chemical S02, 11-anilino-7,8,9,10-tetrahydro-benzimidazo [1,2-b] isoquinoline-6-carbonitrile], the “intratumoral Foxp3+ Treg percentage” value (LLC1 tumors, not splenic) was “significantly decreased”, the “Teff cell tumor infiltration” value (established LLC1 tumors) was “significant increase in Teff cell tumor infiltration” and the tumor rejection (established LLC1 tumors, 20 mg/kg/time vs untreated) was “striking tumor rejection”.

Reference: patent publication US20240238274A1, “INHIBITORS OF UBIQUITIN SPECIFIC PEPTIDASE 22 (USP22) AND USES THEREOF FOR TREATING DISEASE AND DISORDERS” (Northwestern University, priority 2021, published 2024)
